Reference: patent publication US11958865B1, “Leucine-rich repeat kinase 2 (LRRK2) inhibitors” (H. Lundbeck A/S, priority 2022, dated 2024)
Read-outs that look alike come from different tables or passages of the source.

Legend:
LRRK2 G2019S = LRRK2 G2019S (Homo sapiens (Human), UniProt Q5S007, G2019S); assay: LRRK2 G2019S LanthaScreen TR-FRET kinase activity assay; format: biochemical; conditions: 250 pM kinase, 1.3 mM ATP, n≥2 tests
LRRK2 WT = LRRK2 WT (Homo sapiens (Human), UniProt Q5S007); assay: LRRK2 wild-type ADP-Glo kinase assay; format: biochemical; conditions: read-out: LRRK2 WT ADPGlo IC50
LRRK2 WT, sequence (Q5S007 970-2527): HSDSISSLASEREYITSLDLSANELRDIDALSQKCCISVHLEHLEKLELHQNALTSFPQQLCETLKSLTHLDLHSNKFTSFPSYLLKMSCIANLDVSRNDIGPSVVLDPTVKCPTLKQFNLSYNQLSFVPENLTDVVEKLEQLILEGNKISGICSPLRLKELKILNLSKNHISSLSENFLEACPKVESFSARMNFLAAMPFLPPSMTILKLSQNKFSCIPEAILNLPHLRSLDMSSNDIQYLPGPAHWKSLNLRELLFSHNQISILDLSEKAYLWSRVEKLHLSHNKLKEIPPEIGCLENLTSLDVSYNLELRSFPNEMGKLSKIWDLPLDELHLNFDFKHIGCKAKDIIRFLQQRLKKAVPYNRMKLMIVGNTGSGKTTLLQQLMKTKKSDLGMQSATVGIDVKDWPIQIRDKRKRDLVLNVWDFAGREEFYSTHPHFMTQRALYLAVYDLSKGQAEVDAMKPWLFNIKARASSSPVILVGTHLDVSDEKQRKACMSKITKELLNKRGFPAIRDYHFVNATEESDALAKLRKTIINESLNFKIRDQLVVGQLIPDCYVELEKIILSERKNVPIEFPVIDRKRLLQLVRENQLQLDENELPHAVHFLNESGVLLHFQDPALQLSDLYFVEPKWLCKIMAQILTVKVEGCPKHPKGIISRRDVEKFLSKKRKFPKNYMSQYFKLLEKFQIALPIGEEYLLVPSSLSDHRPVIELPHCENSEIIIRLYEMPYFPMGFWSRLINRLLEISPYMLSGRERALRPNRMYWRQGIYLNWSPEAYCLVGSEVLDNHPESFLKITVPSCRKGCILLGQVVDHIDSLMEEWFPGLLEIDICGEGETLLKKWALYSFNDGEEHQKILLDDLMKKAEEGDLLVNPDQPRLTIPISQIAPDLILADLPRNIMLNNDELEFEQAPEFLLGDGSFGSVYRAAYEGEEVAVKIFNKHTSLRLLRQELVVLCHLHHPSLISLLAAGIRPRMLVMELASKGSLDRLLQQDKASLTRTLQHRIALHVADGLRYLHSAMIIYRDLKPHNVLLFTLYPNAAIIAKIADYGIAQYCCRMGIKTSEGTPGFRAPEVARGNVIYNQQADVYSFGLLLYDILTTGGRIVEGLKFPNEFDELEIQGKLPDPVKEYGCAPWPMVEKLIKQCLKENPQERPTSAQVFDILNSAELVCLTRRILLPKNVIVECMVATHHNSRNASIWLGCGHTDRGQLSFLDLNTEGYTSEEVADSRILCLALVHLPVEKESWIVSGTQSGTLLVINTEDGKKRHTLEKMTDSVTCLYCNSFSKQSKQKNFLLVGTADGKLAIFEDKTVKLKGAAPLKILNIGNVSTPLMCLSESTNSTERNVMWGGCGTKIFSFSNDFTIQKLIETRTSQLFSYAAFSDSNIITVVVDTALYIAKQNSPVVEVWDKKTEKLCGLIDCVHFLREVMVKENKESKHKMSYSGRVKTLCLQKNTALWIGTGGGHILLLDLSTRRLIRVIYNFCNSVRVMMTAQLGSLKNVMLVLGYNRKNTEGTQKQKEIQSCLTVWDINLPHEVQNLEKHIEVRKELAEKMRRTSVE

[1] = Hepatocyte intrinsic clearance assay; format: in vitro ADME, Human; conditions: pooled donor, cryopreserved hepatocytes, pH 7.4; human hepatocytes 1×10^6/mL; 0.05 μM; 2 h at 37° C.
Outline: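 Compound (0.05 μM final, 0.05% organic) was incubated with pooled-donor cryopreserved hepatocytes (1×10^6/mL) in supplemented Leibovitz L-15, pH 7.4, at 37° C with shaking for 2 h. Samples were taken from 1 to 120 min, quenched in acetonitrile and analyzed by LC-MS/MS.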

[2] = Hepatic microsomal intrinsic clearance assay; format: in vitro ADME; conditions: for CLint scaled at 1 μM: pooled liver microsomes, pH 7.4, liver microsomes 0.5 mg/mL, NADPH, 1 hour at 37° C., LLOQ 0.36 L/h/kg
Outline: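 Compounds at 1 μM final were incubated with pooled liver microsomes (0.5 mg/mL) in phosphate buffer pH 7.4 at 37 °C for up to 60 min. Samples taken at 0, 5, 10, 20, 30 and 60 min were quenched with acetonitrile and analysed by LC-MS/MS.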

[3] = 0.5 nM kinase, 1.0 mM ATP, IC50=Ki,app+[E]/2, n≥2 tests

LRRK2 G2019S, sequence (Q5S007 970-2527 G2019S): as the sequence (Q5S007 970-2527) above, with G1050S counted along it

| Structure (SMILES) | IC50 (LRRK2 G2019S) | IC50 (LRRK2 WT; [3]) | CLint scaled at 0.05 μM [1] | CLint scaled at 1 μM [2] | Rate of metabolism classification (liver microsomal CLint) ([2]; based on liver microsomal CLint values of Table 6) | IC50 (LRRK2 WT) |
| --- | --- | --- | --- | --- | --- | --- |
| COc1ncccc1-n1nc2c(c1C)Nc1ncc3c(Cl)nn(c3n1)CCCO2 [Example 1, 8-Chloro-2-(2-methoxypyridin-3-yl)-3-methyl-2,4,12,13-tetrahydro-11H-5,7-(azenometheno)dipyrazolo[3,4-b:5′,1′-g][1]oxa[4,6,8]triazacycloundecine] | 0.45 nM | 0.46 nM | 10.7 mL/min/kg | 9.67 mL/min/kg |  |  |
| COc1nccc(C)c1-n1nc2c(c1C)Nc1ncc3c(Cl)nn(c3n1)CCCO2 [Example 7, 8-Chloro-2-(2-methoxy-4-methylpyridin-3-yl)-3-methyl-2,4,12,13-tetrahydro-11H-5,7-(azenometheno)dipyrazolo[3,4-b:5′,1′-g][1]oxa[4,6,8]triazacycloundecine] | 2.3 nM | 0.78 nM | 7.83 mL/min/kg | 16.2 mL/min/kg |  |  |
| COc1ncc(C)cc1-n1nc2c(c1C)Nc1ncc3c(Cl)nn(c3n1)CCCO2 [Example 12, 8-Chloro-2-(2-methoxy-5-methylpyridin-3-yl)-3-methyl-2,4,12,13-tetrahydro-11H-5,7-(azenometheno)dipyrazolo[3,4-b:5′,1′-g][1]oxa[4,6,8]triazacycloundecine] | 0.13 nM | 0.63 nM | 8 mL/min/kg | 16.8 mL/min/kg |  |  |
| COc1nc(C)ccc1-n1nc2c(c1C)Nc1ncc3c(Cl)nn(c3n1)CCCO2 [Example 13, 8-Chloro-2-(2-methoxy-6-methylpyridin-3-yl)-3-methyl-2,4,12,13-tetrahydro-11H-5,7-(azenometheno)dipyrazolo[3,4-b:5′,1′-g][1]oxa[4,6,8]triazacycloundecine] | 0.22 nM | 0.33 nM | 31.3 mL/min/kg | 30.3 mL/min/kg | moderate to high rate of metabolism |  |
| Cc1c2c(nn1-c1cccnc1C(C)(F)F)OCCCn1nc(Cl)c3cnc(nc31)N2 [Example 14, 8-Chloro-2-(2-(1,1-difluoroethyl)pyridin-3-yl)-3-methyl-2,4,12,13-tetrahydro-11H-5,7-(azenometheno)dipyrazolo[3,4-b:5′,1′-g][1]oxa[4,6,8]triazacycloundecine] | 4.2 nM | 1.5 nM | 7.83 mL/min/kg | 17.2 mL/min/kg |  |  |
| Cc1nc(C)c(-n2nc3c(c2C)Nc2ncc4c(Cl)nn(c4n2)CCCO3)cc1F [Example 15, 8-Chloro-2-(5-fluoro-2,6-dimethylpyridin-3-yl)-3-methyl-2,4,12,13-tetrahydro-11H-5,7-(azenometheno)dipyrazolo[3,4-b:5′,1′-g][1]oxa[4,6,8]triazacycloundecine] | 1.4 nM | 0.66 nM | 12 mL/min/kg | 12 mL/min/kg |  |  |
| COc1nc(C)ncc1-n1nc2c(c1C)Nc1ncc3c(Cl)nn(c3n1)CCCO2 [Example 22, 8-Chloro-2-(4-methoxy-2-methylpyrimidin-5-yl)-3-methyl-2,4,12,13-tetrahydro-11H-5,7-(azenometheno)dipyrazolo[3,4-b:5′,1′-g][1]oxa[4,6,8]triazacycloundecine] | 0.59 nM |  | < 4 mL/min/kg | < 6 mL/min/kg |  | 0.6 nM |
